Measured values reported in US20240208992A1, “MACROCYCLES AS CFTR MODULATORS” (Idorsia Pharmaceuticals Ltd, priority 2021, published 2024).

Molecular target: human F508del-CFTR (Homo sapiens, UniProt P13569, DEL508-508)
Assay: F508del-CFTR cell surface expression (corrector activity), DiscoveRx ß-galactosidase complementation chemiluminescence assay in recombinant U2OS cell line;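 further: U2OS cells co-expressing ProLink-tagged F508del-CFTR and a membrane-anchored enzyme acceptor, where more surface CFTR restores β-galactosidase activity measured by chemiluminescence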
Details: for EC50: EC50, F508del-CFTR cell surface expression, U2OS cells, 16h compound incubation, geomean values; for Emax: U2OS, in relation to Emax of corrector lumacaftor (=100%), arithmetic mean values

Sequence of human F508del-CFTR (P13569 with tags, fused parts or gaps DEL508-508): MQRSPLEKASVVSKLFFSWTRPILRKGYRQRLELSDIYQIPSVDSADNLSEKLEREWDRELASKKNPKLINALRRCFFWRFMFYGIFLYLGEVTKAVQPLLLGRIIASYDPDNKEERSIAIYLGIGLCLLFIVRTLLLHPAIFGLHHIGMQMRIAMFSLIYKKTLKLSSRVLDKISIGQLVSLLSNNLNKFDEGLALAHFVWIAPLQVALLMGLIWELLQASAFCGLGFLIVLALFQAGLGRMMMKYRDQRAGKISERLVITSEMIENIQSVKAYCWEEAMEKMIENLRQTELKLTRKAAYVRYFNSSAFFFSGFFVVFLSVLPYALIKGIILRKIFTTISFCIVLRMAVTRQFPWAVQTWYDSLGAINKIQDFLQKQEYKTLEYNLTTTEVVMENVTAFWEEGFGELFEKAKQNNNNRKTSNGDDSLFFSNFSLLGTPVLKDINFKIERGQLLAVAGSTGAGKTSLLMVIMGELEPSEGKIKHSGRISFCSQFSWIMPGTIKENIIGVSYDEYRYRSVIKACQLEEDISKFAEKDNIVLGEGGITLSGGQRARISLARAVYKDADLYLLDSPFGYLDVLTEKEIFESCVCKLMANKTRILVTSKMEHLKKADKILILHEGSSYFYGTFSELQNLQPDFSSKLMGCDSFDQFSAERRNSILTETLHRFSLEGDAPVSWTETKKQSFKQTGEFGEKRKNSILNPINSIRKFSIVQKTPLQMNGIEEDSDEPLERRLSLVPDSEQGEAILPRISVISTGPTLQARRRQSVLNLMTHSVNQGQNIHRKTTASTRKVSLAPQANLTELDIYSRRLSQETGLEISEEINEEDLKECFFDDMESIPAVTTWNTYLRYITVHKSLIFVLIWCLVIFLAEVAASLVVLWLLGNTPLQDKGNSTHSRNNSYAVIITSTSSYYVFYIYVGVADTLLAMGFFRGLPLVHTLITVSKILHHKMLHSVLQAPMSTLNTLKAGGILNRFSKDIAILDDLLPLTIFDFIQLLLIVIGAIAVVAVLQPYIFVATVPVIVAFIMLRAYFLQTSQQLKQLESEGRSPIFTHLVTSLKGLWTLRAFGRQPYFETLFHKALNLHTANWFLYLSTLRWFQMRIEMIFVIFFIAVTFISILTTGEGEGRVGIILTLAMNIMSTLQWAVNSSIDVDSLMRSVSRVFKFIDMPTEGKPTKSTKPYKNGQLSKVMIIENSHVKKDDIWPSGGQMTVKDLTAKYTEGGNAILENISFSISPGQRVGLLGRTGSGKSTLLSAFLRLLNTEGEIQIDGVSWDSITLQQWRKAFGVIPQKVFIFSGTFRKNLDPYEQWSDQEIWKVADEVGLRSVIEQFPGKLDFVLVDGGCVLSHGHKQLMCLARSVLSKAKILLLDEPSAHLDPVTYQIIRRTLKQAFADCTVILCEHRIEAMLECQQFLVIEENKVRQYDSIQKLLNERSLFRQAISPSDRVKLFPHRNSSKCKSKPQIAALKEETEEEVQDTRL

Work on COc1cccc(CCNC(=O)[C@@H]2CC(=O)N(C)[C@@H](CC(C)C)C(=O)N3CCN(C(=O)c4cnccn4)C[C@@H]3C(=O)N[C@H](Cc3ccccc3)COc3ccc4ccccc4c3C(=O)N2)c1 [Example 753, (4aR,7R,18S,22S)-7-benzyl-22-isobutyl-N-(3-methoxyphenethyl)-21-methyl-5,16,20,23-tetraoxo-3-(pyrazine-2-carbonyl)-2,3,4,4a,5,6,7,8,16,17,18,19,20,21,22,23-hexadecahydro-1H-naphtho[1,2-p]pyrazino[2,1-f][1]oxa[4,7,10,14]tetraazacycloheptadecine-18-carboxamide] yielded an EC50 of 0.43 µM and an Emax of 264%.
For COC(=O)N1CCN2C(=O)[C@H](CC(C)C)N(C)C(=O)C[C@@H](C(=O)NCCc3cccc(OC)c3)NC(=O)c3c(ccc4ccccc34)OC[C@@H](Cc3ccccc3)NC(=O)[C@H]2C1 [Example 754, Methyl (4aR,7R,18S,22S)-7-benzyl-22-isobutyl-18-((3-methoxyphenethyl)carbamoyl)-21-methyl-5,16,20,23-tetraoxo-1,2,4,4a,5,6,7,8,16,17,18,19,20,21,22,23-hexadecahydro-3H-naphtho[1,2-p]pyrazino[2,1-f][1]oxa[4,7,10,14]tetraazacycloheptadecine-3-carboxylate], the EC50 was 0.219 µM and the Emax was 279%.
Compound CCOC(=O)N1CCN2C(=O)[C@H](CC(C)C)N(C)C(=O)C[C@@H](C(=O)NCCc3cccc(OC)c3)NC(=O)c3c(ccc4ccccc34)OC[C@@H](Cc3ccccc3)NC(=O)[C@H]2C1 [Example 755, ethyl (4aR,7R,18S,22S)-7-benzyl-22-isobutyl-18-((3-methoxyphenethyl)carbamoyl)-21-methyl-5,16,20,23-tetraoxo-1,2,4,4a,5,6,7,8,16,17,18,19,20,21,22,23-hexadecahydro-3H-naphtho[1,2-p]pyrazino[2,1-f][1]oxa[4,7,10,14]tetraazacycloheptadecine-3-carboxylate] has an EC50 of 0.168 µM and an Emax of 270%.
With COc1cccc(CCNC(=O)[C@@H]2CC(=O)N(C)[C@@H](CC(C)C)C(=O)N3CCN(C(=O)OC4CCOCC4)C[C@@H]3C(=O)N[C@H](Cc3ccccc3)COc3ccc4ccccc4c3C(=O)N2)c1 [Example 756, Tetrahydro-2H-pyran-4-yl (4aR,7R,18S,22S)-7-benzyl-22-isobutyl-18-((3-methoxyphenethyl)carbamoyl)-21-methyl-5,16,20,23-tetraoxo-1,2,4,4a,5,6,7,8,16,17,18,19,20,21,22,23-hexadecahydro-3H-naphtho[1,2-p]pyrazino[2,1-f][1]oxa[4,7,10,14]tetraazacycloheptadecine-3-carboxylate] the EC50 was 0.311 µM and the Emax was 252%.
With COc1cccc(CCNC(=O)[C@@H]2CC(=O)N(C)[C@@H](CC(C)C)C(=O)N3CCN([S@](=O)(=NC(=O)OC(C)(C)C)c4ccccc4)C[C@@H]3C(=O)N[C@H](Cc3ccccc3)COc3ccc4ccccc4c3C(=O)N2)c1 [Example 757, tert-Butyl (((4aR,7R,18S,22S)-7-benzyl-22-isobutyl-18-((3-methoxyphenethyl)carbamoyl)-21-methyl-5,16,20,23-tetraoxo-1,2,4,4a,5,6,7,8,16,17,18,19,20,21,22,23-hexadecahydro-3H-naphtho[1,2-p]pyrazino[2,1-f][1]oxa[4,7,10,14]tetraazacycloheptadecin-3-yl)(oxo)(phenyl)-16-sulfaneylidene)carbamate] the EC50 was 0.145 µM and the Emax was 280%.
In the case of COc1cccc(CCNC(=O)[C@@H]2CC(=O)N(C)[C@@H](CC(C)C)C(=O)N3CCN([S@@](=N)(=O)c4ccccc4)C[C@@H]3C(=O)N[C@H](Cc3ccccc3)COc3ccc4ccccc4c3C(=O)N2)c1 [Example 758, (4aR,7R,18S,22S)-7-Benzyl-22-isobutyl-N-(3-methoxyphenethyl)-21-methyl-5,16,20,23-tetraoxo-3-(phenylsulfonimidoyl)-2,3,4,4a,5,6,7,8,16,17,18,19,20,21,22,23-hexadecahydro-1H-naphtho[1,2-p]pyrazino[2,1-f][1]oxa[4,7,10,14]tetraazacycloheptadecine-18-carboxamide], the EC50 is reported as 0.334 µM and the Emax is reported as 266%.
CC(C)C[C@H]1C(=O)N2CCOC[C@@H]2C(=O)N[C@H](Cc2ccccc2)COc2ccc3ccccc3c2C(=O)N[C@H](C(=O)NCCc2cccc(C#N)c2)CC(=O)N1C [Example 759, (4aR,7R,18S,22S)-7-Benzyl-N-(3-cyanophenethyl)-22-isobutyl-21-methyl-5,16,20,23-tetraoxo-1,2,4,4a,5,6,7,8,16,17,18,19,20,21,22,23-hexadecahydronaphtho[1,2-p][1,4]oxazino[3,4-f][1]oxa[4,7,10,14]tetraazacycloheptadecine-18-carboxamide] showed an EC50 of 0.296 µM and an Emax of 131%.
In the case of COc1cccc(CCNC(=O)[C@@H]2CC(=O)N(C)[C@@H](CC(C)C)C(=O)N3CCCC[C@@H]3C(=O)N[C@H](Cc3ccccc3)COc3c[n+]([O-])c4ccccc4c3C(=O)N2)c1 [Example 760, (9S,13S,19aR,22R)-22-Benzyl-13-isobutyl-9-((3-methoxyphenethyl)carbamoyl)-12-methyl-7,11,14,20-tetraoxo-7,8,9,10,11,12,13,14,17,18,19,19a,20,21,22,23-hexadecahydro-16H-pyrido[2′,1′:6,7][1]oxa[4,7,10,14]tetraazacycloheptadecino[17,16-c]quinoline 2-oxide], the EC50 is reported as 0.723 µM and the Emax is reported as 333%.
With Cc1nc2ccc3c(c2o1)C(=O)N[C@H](C(=O)NCCc1cc(-c2ccccc2)no1)CC(=O)N(C)[C@@H](CC(C)C)C(=O)N(C)C1(CC1)C(=O)N[C@H](Cc1ccccc1)CO3 [Example 761, (8′R,14'S,18'S)-8′-Benzyl-14′-isobutyl-2′,12′,15′-trimethyl-10′,13′,16′,20′-tetraoxo-N-(2-(3-phenylisoxazol-5-yl)ethyl)-7′,8′,9′,10′,13′,14′,15′,16′,17′,18′,19′,20′-dodecahydro-12′H-spiro[cyclopropane-1,11′-oxazolo[4′,5′:5,6]benzo[1,2-p][1]oxa[4,7,10,14]tetraazacycloheptadecine]-18′-carboxamide] the EC50 was 0.676 µM and the Emax was 202%.
Work on Cc1nc2ccc3c(c2o1)C(=O)N[C@H](C(=O)NCCc1cc(C(C)C)no1)CC(=O)N(C)[C@@H](CC(C)C)C(=O)N(C)C1(CC1)C(=O)N[C@H](Cc1ccccc1)CO3 [Example 762, (8′R,14'S,18'S)-8′-Benzyl-14′-isobutyl-N-(2-(3-isopropylisoxazol-5-yl)ethyl)-2′,12′,15′-trimethyl-10′,13′,16′,20′-tetraoxo-7′,8′,9′,10′,13′,14′,15′,16′,17′,18′,19′,20′-dodecahydro-12′H-spiro[cyclopropane-1,11′-oxazolo[4′,5′:5,6]benzo[1,2-p][1]oxa[4,7,10,14]tetraazacycloheptadecine]-18′-carboxamide] yielded an EC50 of 0.929 µM and an Emax of 333%.
In the case of CC(C)C[C@H]1C(=O)N(C)C2(CC2)C(=O)N[C@H](Cc2ccccc2)COc2cnc3ccccc3c2C(=O)N[C@H](C(=O)NCCc2nc(Cc3ccccc3)no2)CC(=O)N1C [Example 763, (3'S,7'S,13′R)-13′-Benzyl-N-(2-(3-benzyl-1,2,4-oxadiazol-5-yl)ethyl)-7′-isobutyl-6′,9′-dimethyl-1′,5′,8′,11′-tetraoxo-2′,3′,4′,5′,6′,7′,8′,9′,11′,12′,13′,14′-dodecahydro-1′H-spiro[cyclopropane-1,10′-[1]oxa[4,7,10,14]tetraazacycloheptadecino[17,16-c]quinoline]-3′-carboxamide], the EC50 is reported as 0.264 µM and the Emax is reported as 181%.
Work on CC(C)C[C@H]1C(=O)N(C)C2(CC2)C(=O)N[C@H](Cc2ccccc2)COc2cnc3ccccc3c2C(=O)N[C@H](C(=O)NCCc2nc(CC3CC3)no2)CC(=O)N1C [Example 764, (3'S,7'S,13′R)-13′-Benzyl-N-(2-(3-(cyclopropylmethyl)-1,2,4-oxadiazol-5-yl)ethyl)-7′-isobutyl-6′,9′-dimethyl-1′,5′,8′,11′-tetraoxo-2′,3′,4′,5′,6′,7′,8′,9′,11′,12′,13′,14′-dodecahydro-1′H-spiro[cyclopropane-1,10′-[1]oxa[4,7,10,14]tetraazacycloheptadecino[17,16-c]quinoline]-3′-carboxamide] yielded an EC50 of 0.374 µM and an Emax of 315%.
COc1noc(CCNC(=O)[C@@H]2CC(=O)N(C)[C@@H](CC(C)C)C(=O)N(C)[C@H](C)C(=O)N[C@H](Cc3ccccc3)COc3ccnc(OC)c3C(=O)N2)c1F [Example 765, (3R,6R,9S,13S)-3-benzyl-N-(2-(4-fluoro-3-methoxyisoxazol-5-yl)ethyl)-9-isobutyl-16-methoxy-6,7,10-trimethyl-5,8,11,15-tetraoxo-2,3,4,5,6,7,8,9,10,11,12,13,14,15-tetradecahydropyrido[3,4-p][1]oxa[4,7,10,14]tetraazacycloheptadecine-13-carboxamide] was tested, and the EC50 was 0.3 µM and the Emax was 323%.
For COc1noc(CCNC(=O)[C@@H]2CC(=O)N(C)[C@@H](CC(C)C)C(=O)N3CCCC[C@@H]3C(=O)N[C@H](Cc3ccccc3)COc3cc(C)nc(OC)c3C(=O)N2)c1F [Example 766, (7S,11S,17aR,20R)-20-benzyl-N-(2-(4-fluoro-3-methoxyisoxazol-5-yl)ethyl)-11-isobutyl-4-methoxy-2,10-dimethyl-5,9,12,18-tetraoxo-5,6,7,8,9,10,11,12,15,16,17,17a,18,19,20,21-hexadecahydro-14H-dipyrido[2,1-f:3′,4′-p][1]oxa[4,7,10,14]tetraazacycloheptadecine-7-carboxamide], the EC50 was 0.154 µM and the Emax was 393%.
COc1noc(CCNC(=O)[C@@H]2CC(=O)N(C)[C@@H](CC(C)C)C(=O)N3CCCC[C@@H]3C(=O)N[C@H](Cc3ccccc3)COc3ccnc(OC)c3C(=O)N2)c1F [Example 767, (7S,11S,17aR,20R)-20-benzyl-N-(2-(4-fluoro-3-methoxyisoxazol-5-yl)ethyl)-11-isobutyl-4-methoxy-10-methyl-5,9,12,18-tetraoxo-5,6,7,8,9,10,11,12,15,16,17,17a,18,19,20,21-hexadecahydro-14H-dipyrido[2,1-f:3′,4′-p][1]oxa[4,7,10,14]tetraazacycloheptadecine-7-carboxamide] was tested, and the EC50 was 0.212 µM and the Emax was 390%.
